Source: ChEMBL document CHEMBL5291721, “A preclinical secondary pharmacology resource illuminates target-adverse drug reaction associations of marketed drugs” (Nat Commun, 2023)

Columns and labels:
[1] = molecular target: Glutamate receptor ionotropic, NMDA 1 (Rattus norvegicus, UniProt P35439)
[2] = molecular target: T1, Progesterone receptor (Homo sapiens, UniProt P06401); type: functional
T1 sequence (P06401 whole entry): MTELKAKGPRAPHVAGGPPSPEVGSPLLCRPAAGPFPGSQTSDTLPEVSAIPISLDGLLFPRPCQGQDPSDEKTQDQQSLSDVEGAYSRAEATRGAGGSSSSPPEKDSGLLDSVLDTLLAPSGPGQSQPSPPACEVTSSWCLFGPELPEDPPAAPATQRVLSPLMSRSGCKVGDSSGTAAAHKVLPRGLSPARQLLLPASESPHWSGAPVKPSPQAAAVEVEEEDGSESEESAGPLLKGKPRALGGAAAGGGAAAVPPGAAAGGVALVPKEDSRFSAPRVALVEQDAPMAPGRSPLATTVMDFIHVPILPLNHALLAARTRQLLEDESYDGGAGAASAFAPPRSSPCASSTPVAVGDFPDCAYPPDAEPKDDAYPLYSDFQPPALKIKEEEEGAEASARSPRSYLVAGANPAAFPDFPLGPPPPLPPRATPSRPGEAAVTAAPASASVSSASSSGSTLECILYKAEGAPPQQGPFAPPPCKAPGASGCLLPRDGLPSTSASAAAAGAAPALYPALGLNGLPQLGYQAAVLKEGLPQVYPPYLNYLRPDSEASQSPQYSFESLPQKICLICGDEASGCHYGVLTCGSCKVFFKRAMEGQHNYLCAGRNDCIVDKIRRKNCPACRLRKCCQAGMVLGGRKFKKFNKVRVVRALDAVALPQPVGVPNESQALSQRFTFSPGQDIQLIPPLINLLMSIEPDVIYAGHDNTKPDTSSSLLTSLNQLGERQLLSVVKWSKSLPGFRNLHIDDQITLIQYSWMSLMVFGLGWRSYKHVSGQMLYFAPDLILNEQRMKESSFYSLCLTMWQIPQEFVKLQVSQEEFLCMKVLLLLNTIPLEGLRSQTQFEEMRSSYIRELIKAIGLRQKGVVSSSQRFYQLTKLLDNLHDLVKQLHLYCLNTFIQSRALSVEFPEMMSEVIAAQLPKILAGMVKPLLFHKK

[3] = molecular target: T2, 5-hydroxytryptamine receptor 2C (Homo sapiens, UniProt P28335)
T2 sequence (P28335 whole entry): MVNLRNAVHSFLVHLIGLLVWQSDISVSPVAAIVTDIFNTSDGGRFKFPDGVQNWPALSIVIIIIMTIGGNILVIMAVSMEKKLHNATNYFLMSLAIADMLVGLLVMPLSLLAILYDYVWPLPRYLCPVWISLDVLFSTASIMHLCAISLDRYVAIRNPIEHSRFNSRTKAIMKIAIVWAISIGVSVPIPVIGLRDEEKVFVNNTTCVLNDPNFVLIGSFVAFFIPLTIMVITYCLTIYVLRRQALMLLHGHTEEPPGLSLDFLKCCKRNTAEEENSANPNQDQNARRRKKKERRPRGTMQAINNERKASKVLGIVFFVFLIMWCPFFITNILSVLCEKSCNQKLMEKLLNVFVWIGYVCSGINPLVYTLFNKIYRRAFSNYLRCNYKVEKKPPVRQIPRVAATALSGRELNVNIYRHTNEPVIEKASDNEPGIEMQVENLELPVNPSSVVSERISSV

[4] = molecular target: Neuronal acetylcholine receptor subunit alpha-4 (Homo sapiens, UniProt P43681)
[5] = molecular target: Gamma-aminobutyric acid receptor subunit alpha-1 (Rattus norvegicus, UniProt P62813)
[6] = molecular target: T3, Glucocorticoid receptor (Homo sapiens, UniProt P04150)
T3 sequence (P04150 whole entry): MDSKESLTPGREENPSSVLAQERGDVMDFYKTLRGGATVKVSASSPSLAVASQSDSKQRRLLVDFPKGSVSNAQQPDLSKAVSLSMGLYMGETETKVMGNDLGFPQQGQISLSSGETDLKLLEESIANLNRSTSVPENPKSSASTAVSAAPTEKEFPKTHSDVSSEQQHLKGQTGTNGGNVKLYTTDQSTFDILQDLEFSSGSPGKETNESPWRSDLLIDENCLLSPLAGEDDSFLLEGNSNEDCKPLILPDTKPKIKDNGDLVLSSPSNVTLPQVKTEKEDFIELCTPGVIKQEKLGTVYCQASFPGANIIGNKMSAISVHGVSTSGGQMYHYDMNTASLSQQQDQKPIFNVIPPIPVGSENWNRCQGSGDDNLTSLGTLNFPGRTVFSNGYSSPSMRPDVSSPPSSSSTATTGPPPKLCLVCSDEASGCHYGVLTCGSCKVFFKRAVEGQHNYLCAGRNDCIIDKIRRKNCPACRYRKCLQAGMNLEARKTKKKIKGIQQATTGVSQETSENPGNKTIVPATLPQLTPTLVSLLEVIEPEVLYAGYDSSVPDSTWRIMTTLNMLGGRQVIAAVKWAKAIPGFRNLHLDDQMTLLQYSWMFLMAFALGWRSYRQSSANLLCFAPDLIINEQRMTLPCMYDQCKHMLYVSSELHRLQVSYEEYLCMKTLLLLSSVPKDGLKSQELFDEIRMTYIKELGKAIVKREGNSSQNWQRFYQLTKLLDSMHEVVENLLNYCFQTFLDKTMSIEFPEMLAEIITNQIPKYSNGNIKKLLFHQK

[7] = molecular target: Histamine H3 receptor (Homo sapiens, UniProt Q9Y5N1)
[8] = molecular target: 3',5'-cyclic-AMP phosphodiesterase 4D (Homo sapiens, UniProt Q08499); type: functional
[9] = molecular target: D(1A) dopamine receptor (Homo sapiens, UniProt P21728); type: functional, cell-based
[10] = molecular target: T4, 5-hydroxytryptamine receptor 1A (Homo sapiens, UniProt P08908); type: functional, cell-based
T4 sequence (P08908 whole entry): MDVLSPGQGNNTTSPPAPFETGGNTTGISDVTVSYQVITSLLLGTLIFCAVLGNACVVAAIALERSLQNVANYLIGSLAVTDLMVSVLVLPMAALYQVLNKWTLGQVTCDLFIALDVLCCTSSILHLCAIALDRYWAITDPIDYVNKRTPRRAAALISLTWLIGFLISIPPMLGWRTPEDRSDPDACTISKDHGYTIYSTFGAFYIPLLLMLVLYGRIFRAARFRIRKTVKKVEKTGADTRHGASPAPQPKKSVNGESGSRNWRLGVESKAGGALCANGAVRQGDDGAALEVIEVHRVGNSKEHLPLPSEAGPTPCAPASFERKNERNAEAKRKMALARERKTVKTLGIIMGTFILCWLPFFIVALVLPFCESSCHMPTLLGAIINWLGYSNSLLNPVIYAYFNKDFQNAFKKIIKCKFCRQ
Note: assay procedure not described here.

Gamma-aminobutyric acid receptor subunit alpha-1, sequence (P62813 whole entry): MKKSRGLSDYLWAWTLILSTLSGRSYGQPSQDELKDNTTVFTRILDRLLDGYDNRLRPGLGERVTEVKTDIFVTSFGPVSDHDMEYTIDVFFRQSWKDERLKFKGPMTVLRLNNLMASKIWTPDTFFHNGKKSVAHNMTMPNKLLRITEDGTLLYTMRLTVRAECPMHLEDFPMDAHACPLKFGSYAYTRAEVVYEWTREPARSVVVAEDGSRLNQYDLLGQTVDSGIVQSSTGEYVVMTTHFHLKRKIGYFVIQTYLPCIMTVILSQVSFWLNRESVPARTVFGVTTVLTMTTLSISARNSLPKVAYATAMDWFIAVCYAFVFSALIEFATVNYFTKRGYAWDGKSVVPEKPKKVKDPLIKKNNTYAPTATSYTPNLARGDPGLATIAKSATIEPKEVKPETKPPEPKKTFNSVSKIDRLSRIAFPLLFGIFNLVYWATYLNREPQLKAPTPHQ
3',5'-cyclic-AMP phosphodiesterase 4D, sequence (Q08499 whole entry): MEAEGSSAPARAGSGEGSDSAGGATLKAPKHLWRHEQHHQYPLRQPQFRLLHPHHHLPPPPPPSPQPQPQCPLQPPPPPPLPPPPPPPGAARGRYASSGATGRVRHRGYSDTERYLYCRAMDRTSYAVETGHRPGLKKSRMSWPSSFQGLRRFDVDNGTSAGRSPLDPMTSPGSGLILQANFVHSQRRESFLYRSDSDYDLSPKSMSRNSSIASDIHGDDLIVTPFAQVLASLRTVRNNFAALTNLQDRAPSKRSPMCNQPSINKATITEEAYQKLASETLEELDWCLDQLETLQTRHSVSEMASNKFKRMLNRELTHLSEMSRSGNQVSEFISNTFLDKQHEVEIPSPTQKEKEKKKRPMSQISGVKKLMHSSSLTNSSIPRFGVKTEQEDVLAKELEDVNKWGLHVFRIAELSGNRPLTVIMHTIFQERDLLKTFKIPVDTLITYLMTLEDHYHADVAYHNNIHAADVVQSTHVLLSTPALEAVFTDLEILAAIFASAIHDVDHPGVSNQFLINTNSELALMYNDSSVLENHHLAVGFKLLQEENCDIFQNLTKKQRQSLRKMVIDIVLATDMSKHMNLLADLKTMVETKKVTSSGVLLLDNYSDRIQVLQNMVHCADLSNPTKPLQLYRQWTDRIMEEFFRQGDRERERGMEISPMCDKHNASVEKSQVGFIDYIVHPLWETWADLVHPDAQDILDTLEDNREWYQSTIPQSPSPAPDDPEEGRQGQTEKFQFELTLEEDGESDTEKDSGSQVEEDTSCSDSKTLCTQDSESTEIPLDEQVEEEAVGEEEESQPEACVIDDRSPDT
Neuronal acetylcholine receptor subunit alpha-4, sequence (P43681 whole entry): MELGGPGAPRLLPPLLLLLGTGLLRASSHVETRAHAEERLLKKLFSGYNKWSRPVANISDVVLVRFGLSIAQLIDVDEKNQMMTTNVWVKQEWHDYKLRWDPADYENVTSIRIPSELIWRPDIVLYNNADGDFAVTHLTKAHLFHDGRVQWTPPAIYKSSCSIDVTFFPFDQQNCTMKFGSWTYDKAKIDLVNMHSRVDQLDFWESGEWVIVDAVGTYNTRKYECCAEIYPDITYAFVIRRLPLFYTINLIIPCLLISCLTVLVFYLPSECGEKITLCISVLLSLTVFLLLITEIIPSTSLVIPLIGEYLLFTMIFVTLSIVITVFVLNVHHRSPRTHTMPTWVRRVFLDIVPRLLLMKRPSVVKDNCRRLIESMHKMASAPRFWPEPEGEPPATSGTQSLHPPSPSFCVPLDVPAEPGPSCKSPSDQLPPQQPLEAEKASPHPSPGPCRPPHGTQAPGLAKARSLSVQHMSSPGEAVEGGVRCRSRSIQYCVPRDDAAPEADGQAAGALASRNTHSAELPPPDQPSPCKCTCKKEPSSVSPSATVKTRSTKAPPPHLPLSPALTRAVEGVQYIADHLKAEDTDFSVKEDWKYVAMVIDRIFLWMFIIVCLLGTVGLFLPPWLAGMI
Histamine H3 receptor, sequence (Q9Y5N1 whole entry): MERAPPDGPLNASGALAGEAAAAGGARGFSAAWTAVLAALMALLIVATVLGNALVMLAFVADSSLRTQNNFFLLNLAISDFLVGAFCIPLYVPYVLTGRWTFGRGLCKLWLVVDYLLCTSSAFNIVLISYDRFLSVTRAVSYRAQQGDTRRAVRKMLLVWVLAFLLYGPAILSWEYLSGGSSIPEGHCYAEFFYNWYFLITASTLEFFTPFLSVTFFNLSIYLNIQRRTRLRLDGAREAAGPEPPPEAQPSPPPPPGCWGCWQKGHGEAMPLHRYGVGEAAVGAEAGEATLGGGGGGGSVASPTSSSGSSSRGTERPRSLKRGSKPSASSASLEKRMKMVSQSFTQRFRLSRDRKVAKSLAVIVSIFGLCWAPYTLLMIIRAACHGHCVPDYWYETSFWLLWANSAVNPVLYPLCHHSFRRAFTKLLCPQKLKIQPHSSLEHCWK
D(1A) dopamine receptor, sequence (P21728 whole entry): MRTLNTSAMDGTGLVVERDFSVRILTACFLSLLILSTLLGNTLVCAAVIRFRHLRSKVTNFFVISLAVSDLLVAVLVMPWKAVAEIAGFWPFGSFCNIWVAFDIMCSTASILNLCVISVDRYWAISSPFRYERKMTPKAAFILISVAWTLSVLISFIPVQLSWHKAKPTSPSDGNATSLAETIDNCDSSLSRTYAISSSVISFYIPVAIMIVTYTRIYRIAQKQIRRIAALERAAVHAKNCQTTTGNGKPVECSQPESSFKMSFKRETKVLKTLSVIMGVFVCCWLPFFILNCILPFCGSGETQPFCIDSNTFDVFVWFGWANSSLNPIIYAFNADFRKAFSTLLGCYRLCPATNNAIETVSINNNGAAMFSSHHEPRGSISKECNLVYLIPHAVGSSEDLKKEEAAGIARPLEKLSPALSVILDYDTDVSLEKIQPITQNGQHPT

SMILES | AC50 [1] [µM] | AC50 [2] [µM] | AC50 [3] [µM] | AC50 [4] [µM] | AC50 [5] [µM] | AC50 [6] [µM] | AC50 [7] [µM] | AC50 [8] [µM] | AC50 [9] [µM] | AC50 [10] [µM]
CC(C)N(CCCCOCC(=O)O)c1cnc(-c2ccccc2)c(-c2ccccc2)n1 | > 30 | > 30 | > 30 | > 30 | > 30 | > 30 | > 30 | 14.3 | 7.3 | > 30
COc1cc(C)c(/C=C/C(C)=C/C=C/C(C)=C/C(=O)O)c(C)c1C [ACITRETIN] | > 10 | > 30 | > 30 | > 10 | > 10 | > 30 | > 10 | > 30 | > 10 | > 10
O=C(O)CCNC(=O)c1ccc(/N=N/c2ccc(O)c(C(=O)O)c2)cc1 [BALSALAZIDE] | > 30 | > 30 | > 30 | > 30 | > 30 | > 30 | 35.5 | > 30 | > 30 | > 30
O=C(CCCN1CCC(O)(c2ccc(Br)cc2)CC1)c1ccc(F)cc1 [BROMPERIDOL] | > 30 | > 30 | > 30 | > 30 | > 30 | > 30 | > 30 | > 30 | > 30 | > 30

Continued, values first:

AC50 [1] [µM] | AC50 [2] [µM] | AC50 [3] [µM] | AC50 [4] [µM] | AC50 [5] [µM] | AC50 [6] [µM] | AC50 [7] [µM] | AC50 [8] [µM] | AC50 [9] [µM] | AC50 [10] [µM] | SMILES
> 30 | > 30 | > 30 | > 30 | > 30 | 18 | > 30 | 11 | > 30 | > 30 | Clc1ccc(CCC(Cn2ccnc2)Sc2c(Cl)cccc2Cl)cc1 (stereo not given) [BUTOCONAZOLE]
> 10 | > 30 | > 30 | > 10 | > 10 | > 30 | > 10 | > 30 | > 10 | > 10 | CC(CN(C)C)C(C)(O)Cc1ccc(Cl)cc1 (stereo not given) [CLOBUTINOL]
> 30 | > 30 | 0.071 | > 30 | > 30 | > 30 | > 30 | > 30 | > 30 | > 30 | CCN1CC(CCN2CCOCC2)C(c2ccccc2)(c2ccccc2)C1=O (stereo not given) [DOXAPRAM]
> 30 | > 30 | > 30 | > 30 | > 30 | > 30 | > 30 | 12 | > 30 | > 30 | CC/C=C\C/C=C\C/C=C\C/C=C\C/C=C\CCCC(=O)OCC [ICOSAPENT ETHYL]
